Source: patent US20190185829A1, “Preparation of lipase with improved ester synthesis activity by using surfactants” (Jiangnan University, priority 2017, published 2019)

Key:
Type in all cases: biochemical
[1] = biological target: T1, Rhizoupus oryzae lipase ROL (Rhizopus oryzae, UniProt P61872); experiment: Hydrolytic activity of surfactant-treated lipase ROL using pNPP as substrate; details: protein 0.2 mg·mL^−1
T1 construct: purchased Sigma-Aldrich Co., Ltd
From the text: (§1) (1) Determination of Hydrolytic Activity of the Lipase Using p-Nitrophenyl Palmitate (pNPP) as Substrate
(§2) Hydrolysis of pNPP catalyzed by lipase generates p-nitrophenol and palmitic acid. p-nitrophenol appears yellow in the buffer at pH 8.0 with the maximum absorption peak at 410 nm. Determination of hydrolytic activity can be achieved by measuring the absorbance at 410 nm.
(§3) The substrate solution A: 50 mmol·L^−1 sodium phosphate buffer (pH 8.0) containing 1.16 g·L^−1 sodium deoxycholate and 0.56 g·L^−1 arabic gum. Substrate solution B: 0.015 g pNPP is dissolved in 5 mL isopropyl alcohol. Substrate solution A and substrate solution B are mixed then stored for use afterwards.
(§4) Termination solution: 40 g·L^−1 NaOH, 93.05 g·L^−1 EDTA sodium. Add 62 uL termination solution to the reaction mixture when stopping the reaction.
(§5) Add 0.1 mL appropriately diluted enzyme solution, which is substituted by inactivated enzyme solution as the control, to 2.4 mL substrate solution above, incubate the mixture at 40° C. for 2 min and measure the absorbance at 410 nm.
(§6) one hydrolytic activity unit is defined as the amount of enzyme that catalyzes the formation of 1 μmol of p-nitrophenol in 1 minute at 40° C.
(§7) enzyme activity (U·mL^−1)=(V×A410×10^6)/(ε×t×V′) Calculation equation: […]
(§8) Specific activity: the activity of lipase per milligram of total protein in the lipase preparation. […]
(§9) Commercial lipase ROL was purchased from Sigma-Aldrich Co., Ltd. ROL is a non-immobilized lipase. Dissolve the ROL powder in water and centrifuge to obtain the supernatant containing the ROL lipase that would be regulated to improve its ester synthesis activity by adjusting the final protein concentration to 0.2 mg·mL^−1 and adding surfactants to the final concentration of 10 mM.
(§10) Commercial lipase ROL was purchased from Sigma-Aldrich Co., Ltd. and is a non-immobilized lipase. Dissolve the ROL powder in water, centrifuge to obtain the supernatant and treat the supernatant with different concentrations of surfactant LPC14 (the final protein concentration was 0.2 mg·mL^−1).

[2] = biological target: T1, Rhizoupus oryzae lipase ROL; experiment: Ester synthesis activity of surfactant-treated lyophilized lipase ROL by GC analysis; details: protein 0.2 mg·mL^−1
Procedure: (§11) (2) Determination of Ester Synthesis Activity of the Lipase by GC Analysis
(§12) Substrate solution A: 48.5 mL of n-octanoic acid is dissolved in 250 mL of n-heptane in a volumetric flask.
(§13) Substrate solution B: 17.5 mL of absolute ethanol is dissolved in 250 mL of n-heptane in a volumetric flask.
(§14) Internal standard: 2-hexanol/n-heptane (35 g·L^−1).
(§15) Standard sample: 10 g of n-octanoate is dissolved in 1000 mL of n-heptane in a volumetric flask.
(§16) 1 mL substrate solution A and substrate solution B are added in a 5 mL Eppendorf tube respectively, then 20 mg lipase powder (or lyophilized powder) is added. The reaction is carried out at 40° C. and with shaking at 150 rpm for 30 min. Remove the lipase powder by centrifugation or membrane filtration. Then 0.1 mL of internal standard is added in 0.4 mL of filtrate or supernatant and mixed. Measure the content of n-octanoate in the mixture above by GC analysis.
(§17) The gas chromatograph (6820, Agilent Instruments) is equipped with a AC20 (PEG20000) capillary column and a FID detector. Nitrogen was used as the carrier gas. The oven temperature was programmed to start at 90° C. for 1 min and then be elevated to 200° C. for 5 min at 10° C.·min^−1. The injector and detector temperatures were set at 250° C.
(§18) Definition of enzyme activity: One unit of ester synthesis activity is defined as the amount of enzyme that esterifies 1 micromole of n-octanoate per min.
(§19) Specific activity: the activity of lipase per milligram of total protein in the lipase preparation.
(§20) Total recovery: the percentage of the activity after a treatment to that before the treatment
(§21) Add an equal volume of high-concentration surfactant solution into the enzyme solution. The final protein concentration was […] and the surfactant concentration was 10 mM. After mixed thoroughly, the mixture was lyophilized and kept in dry condition.
as §9, §10

[3] = system: Rhizopus chinensis lipase r27RCL; experiment: Hydrolytic activity of surfactant-treated lipase r27RCL using pNPP as substrate; details: protein 0.2 mg·mL^−1
From the text: as §1, §2, §3, §4, §5, §6, §7, §8
(§22) Commercial lipase r27RCL was purchased from Jiangsu Yiming Biological Technology Co., Ltd, which has high hydrolytic activity and low ester synthesis activity. Dissolve the r27RCL powder in water and centrifuge to obtain the supernatant containing the r27RCL lipase to adjust the ester synthesis activity (the final protein concentration was 0.2 mg·mL^−1 and the final concentration of surfactant was 10 mM, which is between 0.1×CMC^˜200×CMC of the different surfactants in Table 1).
(§23) Commercial lipase r27RCL was purchased from Jiangsu Yiming Biological Technology Co., Ltd. r27RCL is a lipase with high hydrolytic activity but low ester synthesis activity. Dissolve the r27RCL powder in water, centrifuge to obtain the supernatant and treat the supernatant with different concentrations of surfactant LPC14 (the final protein concentration was 0.2 mg·mL^−1).

[4] = biological target: T2, Pseudomonas cepacia lipase PCL (Burkholderia cepacia, UniProt P22088); experiment: Ester synthesis activity of surfactant-treated lyophilized lipase PCL by GC analysis; details: protein 0.2 mg·mL^−1
T2 construct: purchased Sigma-Aldrich Co., Ltd
Procedure: as §11, §12, §13, §14, §15, §16, §17, §18, §19, §20, §21
as §9, with “PCL” for “ROL”, “the” for “its”
(§24) Commercial lipase PCL was purchased from Sigma-Aldrich Co., Ltd. and is a non-immobilized lipase. Dissolve the PCL powder in water, centrifuge to obtain the supernatant and treat the supernatant with different concentrations of surfactant DDM (the final protein concentration was 0.2 mg·mL^−1).

[5] = biological target: T3, Candida antarctica lipase CALB (Moesziomyces antarcticus, UniProt P41365); experiment: Hydrolytic activity of surfactant-treated lipase CALB using pNPP as substrate; details: protein 0.12 mg·mL^−1
T3 construct: purchased Sigma-Aldrich Co., Ltd
From the text: as §1, §2, §3, §4, §5, §6, §7, §8
as §9, with “CALB” for “ROL”, “the” for “its”, “0.12” for “0.2”
(§25) Commercial lipase CALB was purchased from Sigma-Aldrich Co., Ltd. and is a non-immobilized lipase. Dissolve the CALB powder in water, centrifuge to obtain the supernatant and treat the supernatant with different concentrations of surfactant DDM (the final protein concentration was 0.12 mg·mL^−1).

[6] = biological target: T2, Pseudomonas cepacia lipase PCL; experiment: Hydrolytic activity of surfactant-treated lipase PCL using pNPP as substrate; details: protein 0.2 mg·mL^−1
From the text: as §1, §2, §3, §4, §5, §6, §7, §8
as §9, with “PCL” for “ROL”, “the” for “its”
as §24

[7] = system: Rhizopus chinensis lipase r27RCL; experiment: Ester synthesis activity of surfactant-treated lyophilized lipase r27RCL by GC analysis; details: protein 0.2 mg·mL^−1
Procedure: as §11, §12, §13, §14, §15, §16, §17, §18, §19, §20, §21, §22, §23

[8] = biological target: T3, Candida antarctica lipase CALB; experiment: Ester synthesis activity of surfactant-treated lyophilized lipase CALB by GC analysis; details: protein 0.12 mg·mL^−1
Procedure: as §11, §12, §13, §14, §15, §16, §17, §18, §19, §20, §21
as §9, with “CALB” for “ROL”, “the” for “its”, “0.12” for “0.2”
as §25

[9] = surfactant concentration 0.1 x CMC
[10] = surfactant concentration 1 x CMC
[11] = surfactant concentration 10 x CMC
[12] = surfactant concentration 100 x CMC

T2 sequence (P22088 45-364): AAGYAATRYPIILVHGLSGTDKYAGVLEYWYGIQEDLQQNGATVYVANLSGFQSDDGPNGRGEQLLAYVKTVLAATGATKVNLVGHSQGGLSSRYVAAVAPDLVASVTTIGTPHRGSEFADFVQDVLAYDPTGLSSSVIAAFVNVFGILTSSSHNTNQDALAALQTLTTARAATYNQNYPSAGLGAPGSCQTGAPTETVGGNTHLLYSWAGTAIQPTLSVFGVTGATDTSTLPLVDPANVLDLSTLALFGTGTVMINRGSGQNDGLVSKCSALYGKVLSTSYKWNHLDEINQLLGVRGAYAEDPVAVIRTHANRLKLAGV
T3 sequence (P41365 26-342): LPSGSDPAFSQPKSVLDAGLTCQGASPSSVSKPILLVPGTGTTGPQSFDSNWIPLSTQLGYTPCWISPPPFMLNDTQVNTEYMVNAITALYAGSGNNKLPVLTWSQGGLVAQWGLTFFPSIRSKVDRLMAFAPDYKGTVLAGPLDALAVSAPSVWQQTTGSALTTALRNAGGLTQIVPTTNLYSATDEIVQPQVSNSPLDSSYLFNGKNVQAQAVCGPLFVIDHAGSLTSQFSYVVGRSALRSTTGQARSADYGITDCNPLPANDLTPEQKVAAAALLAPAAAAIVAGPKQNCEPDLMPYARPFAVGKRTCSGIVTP
T1 sequence (P61872 96-392): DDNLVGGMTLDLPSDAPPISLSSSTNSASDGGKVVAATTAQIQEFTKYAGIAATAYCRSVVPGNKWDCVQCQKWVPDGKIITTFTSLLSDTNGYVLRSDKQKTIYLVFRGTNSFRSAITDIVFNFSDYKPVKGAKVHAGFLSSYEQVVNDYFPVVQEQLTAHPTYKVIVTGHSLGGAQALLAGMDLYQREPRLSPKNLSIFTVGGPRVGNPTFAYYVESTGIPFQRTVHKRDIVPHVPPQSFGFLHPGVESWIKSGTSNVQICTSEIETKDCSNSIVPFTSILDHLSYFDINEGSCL

CCCCCCCCCCCCCC(=O)OCC(O)COP(=O)([O-])OCC[N+](C)(C)C (stereo not drawn) [LPC14, 1-myristyl 2-acyl-cis-propyltri-phosphatidylcholine]
Hydrolytic activity, Specific activity ([1]; surfactant 10 mM): 33.1 U · mg^−1
Hydrolytic activity, Total recovery ([1]; surfactant 10 mM): 106%
Hydrolytic activity, Specific activity [1, 9]: 28.7 U · mg^−1
Hydrolytic activity, Total recovery [1, 9]: 150%
Hydrolytic activity, Specific activity [1, 10]: 27.7 U · mg^−1
Hydrolytic activity, Total recovery [1, 10]: 139%
Hydrolytic activity, Specific activity [1, 11]: 31.2 U · mg^−1
Hydrolytic activity, Total recovery [1, 11]: 162%
Hydrolytic activity, Specific activity [1, 12]: 39.0 U · mg^−1
Hydrolytic activity, Total recovery [1, 12]: 206%
Ester synthesis activity, Specific activity ([2]; surfactant 10 mM): 12.2 U · mg^−1
Ester synthesis activity, Specific activity [2, 9]: 0.4 U · mg^−1
Ester synthesis activity, Total recovery [2, 9]: 97%
Ester synthesis activity, Specific activity [2, 10]: 0.2 U · mg^−1
Ester synthesis activity, Total recovery [2, 10]: 46%
Ester synthesis activity, Specific activity [2, 11]: 1.0 U · mg^−1
Ester synthesis activity, Total recovery [2, 11]: 240%
Ester synthesis activity, Specific activity [2, 12]: 6.2 U · mg^−1
Hydrolytic activity, Total recovery ([3]; surfactant 10 mM): 97%
Hydrolytic activity, Specific activity [3, 9]: 120.2 U · mg^−1
Hydrolytic activity, Total recovery [3, 9]: 101%
Hydrolytic activity, Specific activity [3, 10]: 122.2 U · mg^−1
Hydrolytic activity, Total recovery [3, 10]: 102%
Hydrolytic activity, Specific activity [3, 11]: 128.0 U · mg^−1
Hydrolytic activity, Total recovery [3, 11]: 107%
Hydrolytic activity, Specific activity [3, 12]: 125.7 U · mg^−1
Hydrolytic activity, Total recovery [3, 12]: 102%
Ester synthesis activity, Specific activity ([4]; surfactant 10 mM): 44.6 U · mg^−1
Hydrolytic activity, Specific activity ([5]; surfactant 10 mM): 0.54 U · mg^−1
Hydrolytic activity, Total recovery ([5]; surfactant 10 mM): 38%
Hydrolytic activity, Specific activity ([6]; surfactant 10 mM): 321.8 U · mg^−1
Hydrolytic activity, Total recovery ([6]; surfactant 10 mM): 119%
Ester synthesis activity, Specific activity ([7]; surfactant 10 mM): 47.6 U · mg^−1
Ester synthesis activity, Specific activity [7, 9]: 1.8 U · mg^−1
Ester synthesis activity, Total recovery [7, 9]: 32%
Ester synthesis activity, Specific activity [7, 10]: 1.4 U · mg^−1
Ester synthesis activity, Total recovery [7, 10]: 25%
Ester synthesis activity, Specific activity [7, 12]: 17.1 U · mg^−1
Ester synthesis activity, Total recovery [7, 12]: 292%
Ester synthesis activity, Specific activity ([8]; surfactant 10 mM): 36.8 U · mg^−1

CCCCCCCCCCCCO[C@@H]1O[C@H](CO)[C@@H](O[C@H]2O[C@H](CO)[C@@H](O)[C@H](O)[C@H]2O)[C@H](O)[C@H]1O [DDM, n-dodecyl-ß-D-maltopyranoside]
Hydrolytic activity, Specific activity ([1]; surfactant 10 mM): 42.7 U · mg^−1
Hydrolytic activity, Total recovery ([1]; surfactant 10 mM): 116%
Ester synthesis activity, Specific activity ([2]; surfactant 10 mM): 2.8 U · mg^−1
Hydrolytic activity, Specific activity ([3]; surfactant 10 mM): 135.0 U · mg^−1
Hydrolytic activity, Total recovery ([3]; surfactant 10 mM): 94%
Ester synthesis activity, Specific activity ([4]; surfactant 10 mM): 55.6 U · mg^−1
Ester synthesis activity, Specific activity [4, 9]: 3.2 U · mg^−1
Ester synthesis activity, Total recovery [4, 9]: 58%
Ester synthesis activity, Specific activity [4, 10]: 2.9 U · mg^−1
Ester synthesis activity, Total recovery [4, 10]: 57%
Ester synthesis activity, Specific activity [4, 11]: 20.0 U · mg^−1
Ester synthesis activity, Total recovery [4, 11]: 260%
Ester synthesis activity, Specific activity [4, 12]: 101.6 U · mg^−1
Hydrolytic activity, Specific activity ([5]; surfactant 10 mM): 0 U · mg^−1
Hydrolytic activity, Total recovery ([5]; surfactant 10 mM): 0%
Hydrolytic activity, Specific activity [5, 9]: 2.1 U · mg^−1
Hydrolytic activity, Total recovery [5, 9]: 45%
Hydrolytic activity, Specific activity [5, 10]: 3.0 U · mg^−1
Hydrolytic activity, Total recovery [5, 10]: 75%
Hydrolytic activity, Specific activity [5, 11]: 0.7 U · mg^−1
Hydrolytic activity, Total recovery [5, 11]: 10%
Hydrolytic activity, Specific activity [5, 12]: 0 U · mg^−1
Hydrolytic activity, Total recovery [5, 12]: 0%
Hydrolytic activity, Specific activity ([6]; surfactant 10 mM): 327.7 U · mg^−1
Hydrolytic activity, Total recovery ([6]; surfactant 10 mM): 111%
Hydrolytic activity, Specific activity [6, 9]: 499.5 U · mg^−1
Hydrolytic activity, Total recovery [6, 9]: 106%
Hydrolytic activity, Specific activity [6, 10]: 434.7 U · mg^−1
Hydrolytic activity, Total recovery [6, 10]: 99%
Hydrolytic activity, Specific activity [6, 11]: 756.7 U · mg^−1
Hydrolytic activity, Total recovery [6, 11]: 114%
Hydrolytic activity, Specific activity [6, 12]: 773.5 U · mg^−1
Hydrolytic activity, Total recovery [6, 12]: 246%
Ester synthesis activity, Specific activity ([7]; surfactant 10 mM): 31.4 U · mg^−1
Ester synthesis activity, Specific activity ([8]; surfactant 10 mM): 101.9 U · mg^−1
Ester synthesis activity, Specific activity [8, 9]: 4.0 U · mg^−1
Ester synthesis activity, Total recovery [8, 9]: 12%
Ester synthesis activity, Specific activity [8, 10]: 14.3 U · mg^−1
Ester synthesis activity, Total recovery [8, 10]: 50%
Ester synthesis activity, Specific activity [8, 11]: 37.3 U · mg^−1
Ester synthesis activity, Total recovery [8, 11]: 73%
Ester synthesis activity, Specific activity [8, 12]: 32.6 U · mg^−1
Ester synthesis activity, Total recovery [8, 12]: 189%
